Data on 30 compounds can be found in patent US20260364068A1, “ANTIVIRAL USE OF HETEROARYL DERIVATIVE COMPOUND” (UIF (University Industry Foundation), Yonsei University, priority 2022, published 2026).

The series is described as follows: Cell viability measurement (MTS), Calu-3 cells. Format: cell-based. The settings on record: human. As for the experimental part:
Experimental Example 3: Cell Viability Measurement
Vero cell line (VERO01WCB-1201, Ministry of Food and Drug Safety, Republic of Korea), Calu-3 cell line (KCLB #30055, Korea Cell Line Bank (KCLB), Republic of Korea), CellTiter 96® AQueous One Solution Cell Proliferation Assay kit (Promega, cat. #G3582), and Infinite M200 microplate reader (Tecan).
Calu-3 cells were cultured at 37 °C and 5% CO2 in MEM medium supplemented with 10% fetal bovine serum, 2.2 g/L sodium bicarbonate, 1% 100 units/mL penicillin, and 100 μg/mL streptomycin.
Vero cells or Calu-3 cells were seeded in 96-well microplates and cultured for 24 hours until the cell confluency reached 20%. After the incubation, compounds were treated in DMSO at concentrations (1, 3, and 10 μM) to reach 0.5% v/v in each well, and reacted at 37 °C for 48 hours. Into each well of the incubated 96-well microplate, 3-(4,5-dimethylthiazol-2-yl)-5-(3-carboxymethoxyphenyl)-2-(4-sulfophenyl)-2H-tetrazolium salt (MTS) assay solution [CellTiter 96® AQueous One Solution Cell Proliferation Assay kit (Promega)] mixed with DMEM medium at a ratio of 1:5, was dispensed at 100 μL/well and incubated at 37 °C for 1 hour. The 490 nm and 690 nm absorbance was then measured using an Infinite M200 instrument.
The cell viability (also, referred to as cell survival rate) (%) by compound treatment was calculated using the following analysis method. The 690 nm background absorbance value was subtracted from the measured 490 nm absorbance value. Then, to obtain the cell viability of each test group, the viability of the DMSO-treated group that was not treated with the compound was set to 100% and then the relative viability 1 of each compound was calculated. Two to six repeated tests were performed to obtain the results, and the mean values of the results were categorized into the following ranges and shown in Table 5 below (A: 80% survived, B: 50-80% survived, N/A: not tested)

Some results are limits rather than exact numbers.

In the case of `c1ccc(-c2ccc(Nc3cccc(-c4nc5ccccc5[nH]4)c3)cc2)cc1` [Example 19, N-[3-(1H-benzo[d]imidazol-2-yl)phenyl]-[1,1′-biphenyl]-4-amine], the viability at 48 h, 1 µM was 50 to 80% and the viability at 48 h, 3 µM was in the range of 50 to 80%.

Take `c1cc(Nc2ccc(-c3ccncc3)cc2)cc(-c2nc3ccccc3[nH]2)c1` [Example 33, N-[3-(1H-benzo[d]imidazol-2-yl)phenyl]-4-(pyridin-4-yl)aniline]: the viability at 48 h, 1 µM is 50 to 80%.

`c1cc(Nc2ncc(-c3cccnn3)cn2)cc(-c2nc3cnccc3[nH]2)c1` [Example 49, N-(3-{1H-imidazolo[4,5-c]pyridin-2-yl}phenyl)-5-(pyridazin-3-yl)pyrimidin-2-amine] showed a viability at 48 h, 1 µM above 80%; a viability at 48 h, 3 µM above 80%; a viability at 48 h, 10 µM above 80%.

`c1cc(Nc2ncc(-c3cccnn3)cn2)cc(-c2nc3ccccc3[nH]2)c1` [Example 53, N-[3-(1H-benzo[d]imidazol-2-yl)phenyl]-5-(pyridazin-3-yl)pyrimidin-2-amine] registered a viability at 48 h, 1 µM above 80%; a viability at 48 h, 3 µM of 50 to 80%; a viability at 48 h, 10 µM of 50 to 80%.

With `c1cc(Nc2ccc(-c3ccncn3)cn2)cc(-c2nc3ccccc3[nH]2)c1` [Example 68, N-[3-(1H-benzo[d]imidazol-2-yl)phenyl]-5-(pyrimidin-4-yl)pyridin-2-amine], the viability at 48 h, 1 µM was 50 to 80%.

For the compound `c1cnc(-c2ccc(Nc3cccc(-c4nc5ccccc5[nH]4)c3)nc2)nc1` [Example 69, N-(3-(1H-benzo[d]imidazol-2-yl)phenyl)-5-(pyrimidin-2-yl)pyridin-2-amine], the viability at 48 h, 1 µM was above 80%.

As for `c1cc(Nc2ncc(-c3cncnc3)cn2)cc(-c2nc3ccccc3[nH]2)c1` [Example 70, N-[3-(1H-benzo[d]imidazol-2-yl)phenyl]-[5,5′-bipyrimidin]-2-amine], the viability at 48 h, 1 µM was above 80% and the viability at 48 h, 3 µM fell in the range of 50 to 80%.

The compound `c1cnc(-c2cnc(Nc3cccc(-c4nc5ccccc5[nH]4)c3)nc2)nc1` [Example 71, N-[3-(1H-benzo[d]imidazol-2-yl)phenyl]-[2,5′-bipyrimidin]-2′-amine] returned a viability at 48 h, 1 µM above 80% and a viability at 48 h, 3 µM of 50 to 80%.

As to `c1ccc(-c2ccc(Nc3cccc(-c4nc5ccccc5[nH]4)c3)cn2)cc1` [Example 80, N-[3-(1H-benzo[d]imidazol-2-yl)phenyl]-6-phenyl-pyridin-3-amine], the viability at 48 h, 1 µM is above 80% and the viability at 48 h, 3 µM is 50 to 80%.

Consider `Fc1ccc2nc(-c3cccc(Nc4ccc(-c5ccccn5)cc4)c3)[nH]c2c1` [Example 92, 3-(6-fluoro-1H-benzo[d]imidazol-2-yl)-N-[4-(2-pyridyl)phenyl]aniline], for which the viability at 48 h, 1 µM lay in the range of 50 to 80%.

`c1cc(Nc2ccc(-c3ccnnc3)cc2)cc(-c2nc3ccccc3[nH]2)c1` [Example 94, 3-(1H-benzo[d]imidazol-2-yl)-N-(4-pyridazin-4-ylphenyl)aniline] gave a viability at 48 h, 1 µM of 50 to 80%.

Take `Fc1cc2nc(-c3cccc(Nc4ccc(-c5ccncn5)cc4)c3)[nH]c2cc1F` [Example 95, 3-(5,6-difluoro-1H-benzo[d]imidazol-2-yl)-N-(4-pyrimidin-4-ylphenyl)aniline]: the viability at 48 h, 1 µM was in the range of 50 to 80%.

`c1cc(Nc2ccc(C3CCCCC3)cc2)cc(-c2nc3ccccc3[nH]2)c1` [Example 97, 3-(1H-benzo[d]imidazol-2-yl)-N-(4-cyclohexylphenyl)aniline] came in with a viability at 48 h, 1 µM above 80% and a viability at 48 h, 3 µM of 50 to 80%.

As to `FC(F)(F)c1ccc2nc(-c3cccc(Nc4ccc(-c5ccccn5)cc4)c3)[nH]c2c1` [Example 98, N-[4-(2-pyridyl)phenyl]-3-[6-(trifluoromethyl)-1H-benzo[d]imidazol-2-yl]aniline], the viability at 48 h, 1 µM lay in the range of 50 to 80%.

For `Fc1cc2nc(-c3cccc(Nc4ncc(-c5cccnn5)cn4)c3)[nH]c2cc1F` [Example 99, N-[3-(5,6-difluoro-1H-benzo[d]imidazol-2-yl)phenyl]-5-pyridazin-3-yl-pyrimidin-2-amine], the viability at 48 h, 1 µM is above 80%; the viability at 48 h, 3 µM is above 80%; the viability at 48 h, 10 µM is above 80%.

`FC(F)(F)c1ccc2nc(-c3cccc(Nc4ccc(-c5ncccn5)cn4)c3)[nH]c2c1` [Example 100, 5-pyrimidin-2-yl-N-[3-[6-(trifluoromethyl)-1H-benzo[d]imidazol-2-yl]phenyl]pyridin-2-amine] gave a viability at 48 h, 1 µM of 50 to 80%.

For `Cc1cccc2nc(-c3cccc(Nc4ccc(-c5cccnn5)cc4)c3)[nH]c12` [Example 101, 3-(7-methyl-1H-benzo[d]imidazol-2-yl)-N-(4-pyridazin-3-ylphenyl)aniline], the viability at 48 h, 1 µM was above 80%.

`FC(F)(F)c1cc2[nH]c(-c3cccc(Nc4ncc(-c5cccnn5)cn4)c3)nc2cn1` [Example 103, 5-pyridazin-3-yl-N-[3-[6-(trifluoromethyl)-1H-imidazo[4,5-c]pyridin-2-yl]phenyl]pyrimidin-2-amine] came in with a viability at 48 h, 1 µM above 80%; a viability at 48 h, 3 µM above 80%; a viability at 48 h, 10 µM above 80%.

`Fc1cc2[nH]c(-c3cccc(Nc4ccc(-c5cccnn5)cc4)c3)nc2cc1C(F)(F)F` [Example 104, 3-[6-fluoro-5-(trifluoromethyl)-1H-benzo[d]imidazol-2-yl]-N-(4-pyridazin-3-ylphenyl)aniline] returned a viability at 48 h, 1 µM of 50 to 80% and a viability at 48 h, 3 µM of 50 to 80%.

As to `CC(C)(C)c1ccc2nc(-c3cccc(Nc4ccc(-c5cccnn5)cc4)c3)[nH]c2c1` [Example 107, 3-(6-tert-butyl-1H-benzo[d]imidazol-2-yl)-N-(4-pyridazin-3-ylphenyl)aniline], the viability at 48 h, 1 µM was above 80%.

`COc1ccc2nc(-c3cccc(Nc4ncc(-c5cccnn5)cn4)c3)[nH]c2c1` [Example 108, N-[3-(6-methoxy-1H-benzo[d]imidazol-2-yl)phenyl]-5-pyridazin-3-yl-pyrimidin-2-amine] had a viability at 48 h, 1 µM above 80%; a viability at 48 h, 3 µM above 80%; a viability at 48 h, 10 µM above 80%.

Regarding `FC(F)(F)Oc1ccc2nc(-c3cccc(Nc4ccc(-c5ccncn5)cc4)c3)[nH]c2c1` [Example 109, N-(4-pyrimidin-4-ylphenyl)-3-[6-(trifluoromethoxy)-1H-benzo[d]imidazol-2-yl]aniline], the viability at 48 h, 1 µM fell in the range of 50 to 80%.

Turning to `FC(F)(F)Oc1ccc2nc(-c3cccc(Nc4ncc(-c5ccccn5)cn4)c3)[nH]c2c1` [Example 118, 5-(2-pyridyl)-N-[3-[6-(trifluoromethoxy)-1H-benzo[d]imidazol-2-yl]phenyl]pyrimidin-2-amine], the viability at 48 h, 10 µM was in the range of 50 to 80%.

For `FC(F)(F)Oc1cc2nc(-c3cccc(Nc4ncc(-c5cccnn5)cn4)c3)[nH]c2cc1Cl` [Example 120, N-[3-[6-chloro-5-(trifluoromethoxy)-1H-benzo[d]imidazol-2-yl]phenyl]-5-pyridazin-3-yl-pyrimidin-2-amine], the viability at 48 h, 10 µM is above 80%.

With `Fc1cc2[nH]c(-c3cccc(Nc4ncc(-c5ccccn5)cn4)c3)nc2cn1` [Example 286, N-(3-(6-fluoro-1H-imidazo[4,5-c]pyridin-2-yl)phenyl)-5-(pyridin-2-yl)pyrimidin-2-amine], the viability at 48 h, 10 µM is above 80%.

In turn, `FC(F)(F)Oc1ccc2nc(-c3cccc(Nc4ncc(-c5cccnn5)cn4)c3)[nH]c2c1` [Example 295, 5-(pyridazin-3-yl)-N-(3-(6-(trifluoromethoxy)-1H-benzo[d]imidazol-2-yl)phenyl)pyrimidin-2-amine] gave a viability at 48 h, 10 µM above 80%.

For the compound `Fc1cc2nc(-c3cccc(Nc4cnc(-c5ccncn5)cn4)c3)[nH]c2cc1F` [Example 297, N-(3-(5,6-difluoro-1H-benzo[d]imidazol-2-yl)phenyl)-5-(pyrimidin-4-yl)pyrazin-2-amine], the viability at 48 h, 10 µM was above 80%.

The compound `FC(F)Oc1ccc2nc(-c3cccc(Nc4cnc(-c5ccccn5)cn4)c3)[nH]c2c1` [Example 300, N-(3-(6-(difluoromethoxy)-1H-benzo[d]imidazol-2-yl)phenyl)-5-(pyridin-2-yl) pyrazin-2-amine] gave a viability at 48 h, 10 µM above 80%.

In turn, `Clc1cc2[nH]c(-c3cccc(Nc4cnc(-c5ccccn5)cn4)c3)nc2cn1` [Example 301, N-(3-(6-chloro-1H-imidazo[4,5-c]pyridin-2-yl)phenyl)-5-(pyridin-2-yl)pyrazin-2-amine] gave a viability at 48 h, 10 µM above 80%.

Compound `Clc1cc2[nH]c(-c3cccc(Nc4ncc(-c5cscn5)cn4)c3)nc2cn1` [Example 303, N-(3-(6-chloro-1H-imidazo[4,5-c]pyridin-2-yl)phenyl)-5-(thiazol-4-yl)pyrimidin-2-amine] came in with a viability at 48 h, 10 µM of 50 to 80%.
